Tests used:
[1] = tested on: sialidase (EC 3.2.1.18) of B. breve ATCC 15700; assay: Glycosyl hydrolase assay, sialidase in cell-free extract; type: cell-based; conditions: cells grown with 1% (w/v) of the substance as sole carbon source
Protocol: (§1) Assayed cells were incubated anaerobically at 37° C. on semi-synthetic MRS medium (Barrangou et al., Proceedings of the National Academy of Sciences of the United States of America (2003) 100: 8957-8962), with 1% (w/v) sterile filtered lactose or HMO as the sole carbon source. Early stationary phase cells were harvested and 200 mg of 0.1 mm diameter glass beads (BioSpec Products, Bartlesville, Okla.) were added to the suspensions which were subjected to two cycles of 45 s at power 6.0 m s^−1 on a FastPrep FP120 cell disruptor (Qbiogene, Morgan Irvine, Calif.). The beads and cell debris were removed by centrifugation. Cell-free extracts were collected and kept temporarily on ice until the start of the enzyme assays. Protein concentrations were determined according to the Bradford method using bovine serum albumin as the standard (Bradford, M. M., Analytical Biochemistry (1976) 72, (1-2), 248-254). Activity of α-L-fucosidase (EC 3.2.1.51) and sialidase (EC 3.2.1.18) were assayed with the fluorogenic substrates, 4-methylumbelliferyl α-L-fucopyranoside and 2′-(4-methylumbelliferyl) α-D-N-acetylneuraminic acid respectively. Fucosidase activity was assayed with a fluorogenic substrate concentration of 1 mM in 0.2 M phosphate-citrate buffer (pH 5.2), while the sialidase assay employed 0.5 mM of substrate mixed in equal volume with 50 μl 0.25 M sodium acetate-acetic acid buffer (pH 4.3). The reaction mixture containing 100 μl of cell-free extract and 100 μL substrate solution were incubated for 1 hr at 37° C. with the reaction stopped with 1.3 mL of 0.17 M glycine-carbonate buffer, pH 9.8. The fluorescence of enzymatically liberated 4-methylumbelliferone was determined in a Bio-Rad VersaFluor fluorometer (Eureka, Calif.) by excitation at 360 nm and emission measured at 460 nm. Serially diluted 4-methylumbelliferone was used to calibrate relative fluorescence units with substrate concentration. The specific activity of the glycosyl hydrolase was expressed as nanomoles of hydrolyzed substrate per milligram of protein per hour. Assays were performed in duplicates and the standard error was reported.

[2] = tested on: sialidase (EC 3.2.1.18) of B. infantis ATCC 15697; assay: as above; type: cell-based
Protocol: as §1

[3] = tested on: sialidase (EC 3.2.1.18) of B. longum DJO10A; assay: as above; type: cell-based; conditions: cells grown with 1% (w/v) of the substance as sole carbon source
Protocol: as §1

[4] = tested on: B. longum bv. longum DJO10A; assay: FTICR-MS HMO consumption glycoprofiling of bacterial fermentation; type: cell-based, Bifidobacterium longum bv. longum; conditions: 45 hrs
Text: (§2) Bifidobacterium longum bv. infantis ATCC 15697 and B. breve ATCC 15700 were obtained from the American Type Culture Collection (Manassas, Va.), B. longum bv. longum DJO10A was from D. O'Sullivan, University of Minnesota. Cultures were initially propagated in deMan, Rogosa, Sharpe broth (Becton Dickinson, Sparks, Md.) then grown twice on a semi-synthetic MRS medium, devoid of a carbohydrate source (Barrangou et al., Proceedings of the National Academy of Sciences of the United States of America (2003) 100, (15), 8957-8962). This medium was supplemented with 2.0% (w/v) sterile filtered (Millex-GV, 0.22 μm, Millipore, Billerica, Mass.) HMO as the only carbohydrate source. […] Cell growth was measured by assessing optical density at 600 nm with a ND-1000 Spectrophotometer (NanoDrop Technologies, Wilmington, Del.). […]
(§3) All mass spectra were acquired on a HiResESI QFT-hybrid Fourier transform ion cyclotron resonance mass spectrometer with a 9.4 Tesla shielded superconducting magnet (IonSpec Corp., Irvine, Calif.). […] Ion excitation was performed by arbitrary waveform with amplitude of 125.0 V (base-to-peak) and detected by direct broadband mode at a rate of 1 MHz and 512K data points. Each spectrum was recorded with one acquisition scan in the positive ion mode.
(§4) The D/H ratios were calculated using Formula 1 adapted from Xie et al. (Xie et al., Analytical Chemistry (2004) 76, (17), 5186-5197). […]

B. breve ATCC 15700 = assay: as above; type: cell-based, Bifidobacterium breve; conditions: 45 hrs
Text: as §2, §3, §4

[5] = media supplemented with 2.0% (w/v) HMO

SMILES	Sialidase [1] [nmol/min/mg protein]	Sialidase ([2]; cells grown with 1% (w/v) of the substance as sole carbon source) [nmol/min/mg protein]	higher sialidase activity of B. longum bv. infantis compared to B. breve ([2]; grown on lactose) [fold]	higher sialidase activity of B. longum bv. infantis compared to B. longum ([2]; grown on lactose) [fold]	Sialidase [3] [nmol/min/mg protein]	consumption of the overall detectable HMO pool represented by LNT metabolism ([4]; 2.0% (w/v) HMO) [%]	consumption of the HMO species [4, 5] [%]	consumption of the overall detectable HMO pool represented by LNT metabolism (B. breve ATCC 15700; 2.0% (w/v) HMO) [%]	consumption of the HMO species (B. breve ATCC 15700; [5]) [%]
OC[C@H]1O[C@@H](O[C@H]2[C@H](O)[C@@H](O)C(O)O[C@@H]2CO)[C@H](O)[C@@H](O)[C@H]1O (stereo partly drawn) [lactose]	0.32 ± 0.03	10.8 ± 1.0	33.7	16.6	0.65 ± 0.03	–	–	–	–
CC(=O)N[C@H]1[C@H](O[C@H]2[C@@H](O)[C@@H](CO)O[C@@H](O[C@H]3[C@H](O)[C@@H](O)C(O)O[C@@H]3CO)[C@@H]2O)O[C@H](CO)[C@@H](O)[C@@H]1O[C@@H]1O[C@H](CO)[C@H](O)[C@H](O)[C@H]1O (stereo partly drawn) [lacto-N-tetraose]	–	–	–	–	–	7.3	35.2	5.1	24.4

Source: patent US8197872B2, “Human milk oligosaccharides to promote growth of beneficial gut bacteria” (The Regents of the University of California, priority 2007, dated 2012)
